Laboratory results reported in the NIST ThermoML archive (doi:10.1021/je0201976).

Conditions: Liquid

COC(F)(F)C(F)(F)C(F)F [1,1,2,2,3,3-hexafluoro-1-methoxypropane]
Conditions | Critical pressure [kPa] | Critical temperature [K] | vapor or sublimation pressure [kPa]
– | 3032 | 486.98 | –
301.9 K | – | – | 22.4
312.59 K | – | – | 35
322.63 K | – | – | 52.9
332.69 K | – | – | 77
337.67 K | – | – | 92.1
342.69 K | – | – | 109.2
352.73 K | – | – | 151.1
362.74 K | – | – | 204.9
372.78 K | – | – | 273.4
382.81 K | – | – | 357.4
392.84 K | – | – | 458.8
402.87 K | – | – | 581.1
412.87 K | – | – | 726.2
422.91 K | – | – | 898.8
432.94 K | – | – | 1100.7
442.97 K | – | – | 1333.7
452.99 K | – | – | 1605.1
463.02 K | – | – | 1921.8
473.04 K | – | – | 2276.4
480.12 K | – | – | 2562.9

COCC(F)(F)C(F)(F)C(F)(F)C(F)F [1,1,2,2,3,3,4,4-octafluoro-5-methoxypentane]
Conditions | Critical pressure [kPa] | Critical temperature [K] | vapor or sublimation pressure [kPa]
– | 2392 | 546.1 | –
301.49 K | – | – | 2.3
312.42 K | – | – | 4
322.54 K | – | – | 6.9
332.62 K | – | – | 11.2
342.67 K | – | – | 18.1
352.72 K | – | – | 29.1
362.75 K | – | – | 48
372.79 K | – | – | 74.3
382.81 K | – | – | 106.8
392.83 K | – | – | 147.1
402.86 K | – | – | 193.8
412.89 K | – | – | 250.4
422.92 K | – | – | 320.1
432.94 K | – | – | 395.7
442.97 K | – | – | 482.8
452.99 K | – | – | 585.8
463 K | – | – | 710.7
473.04 K | – | – | 849.5
483.07 K | – | – | 1006.9
492.89 K | – | – | 1184.9
502.72 K | – | – | 1385.9
512.54 K | – | – | 1615.9
522.34 K | – | – | 1873.5
532.17 K | – | – | 2168.7
541.94 K | – | – | 2471.9
545.63 K | – | – | 2602.5

FC(C(F)(F)F)C(F)(F)OCC(F)(F)C(F)(F)F (stereo not given)
Conditions | Critical density [kg/m3] | Critical pressure [kPa] | Critical temperature [K] | vapor or sublimation pressure [kPa]
– | 567 | – | – | –
312.48 K | – | – | – | 14.7
342.64 K | – | – | – | 54.8
352.72 K | – | – | – | 79.1
362.78 K | – | – | – | 113.1
372.77 K | – | – | – | 157
382.71 K | – | – | – | 211.7
402.89 K | – | – | – | 360.6
412.9 K | – | – | – | 460.7
422.79 K | – | – | – | 575.4
432.96 K | – | – | – | 717.1
443 K | – | – | – | 881.9
453 K | – | – | – | 1067.4
461.47 K | – | – | – | 1255.3
473.07 K | – | – | – | 1548.7
483.09 K | – | – | – | 1842.8
486.67 K | – | – | – | 1954.3
Direct measurement | – | 1950 | – | –
Visual observation in an unstirred cell | – | – | 486.48 | –

COCC(F)(F)C(F)(F)C(F)(F)F [1,1,1,2,2,3,3-heptafluoro-4-methoxybutane]
Conditions | Critical density [kg/m3] | Critical pressure [kPa] | Critical temperature [K] | vapor or sublimation pressure [kPa]
– | 497 | – | – | –
291.65 K | – | – | – | 12.1
302.31 K | – | – | – | 20.4
312.43 K | – | – | – | 32.3
322.64 K | – | – | – | 48.9
332.66 K | – | – | – | 71.5
337.71 K | – | – | – | 85.4
342.7 K | – | – | – | 101.2
347.73 K | – | – | – | 119.2
362.74 K | – | – | – | 189.2
372.75 K | – | – | – | 250.2
382.82 K | – | – | – | 326.6
392.85 K | – | – | – | 419.6
402.88 K | – | – | – | 531.3
412.9 K | – | – | – | 664.3
422.92 K | – | – | – | 820.3
432.95 K | – | – | – | 1004.6
442.98 K | – | – | – | 1216.4
453 K | – | – | – | 1462.9
463.01 K | – | – | – | 1746.1
473.05 K | – | – | – | 2071.1
478.44 K | – | – | – | 2266.3
481.5 K | – | – | – | 2382.5
481.66 K | – | – | – | 2389.1
Direct measurement | – | 2381 | – | –
Visual observation in an unstirred cell | – | – | 481.54 | –

FCC(F)(F)F [1,1,1,2-tetrafluoroethane]
Conditions | Critical density [kg/m3] | Critical pressure [kPa] | Critical temperature [K]
– | 508 | – | –
Direct measurement | – | 4051 | –
Visual observation in an unstirred cell | – | – | 374.13

FC(F)C(F)(F)COC(F)(F)C(F)F [1,1,2,2-tetrafluoro-3-(1,1,2,2-tetrafluoroethoxy)propane]
Conditions | Critical density [kg/m3] | Critical pressure [kPa] | Critical temperature [K] | vapor or sublimation pressure [kPa]
– | 530 | – | – | –
322.65 K | – | – | – | 20.9
332.65 K | – | – | – | 31.6
342.71 K | – | – | – | 46.8
352.73 K | – | – | – | 67.9
362.77 K | – | – | – | 95.4
372.77 K | – | – | – | 131.3
382.81 K | – | – | – | 177.3
402.88 K | – | – | – | 308.1
412.91 K | – | – | – | 395.4
422.94 K | – | – | – | 500.2
432.96 K | – | – | – | 628.3
442.99 K | – | – | – | 773.9
453.01 K | – | – | – | 946.9
463.24 K | – | – | – | 1151.4
473.06 K | – | – | – | 1378.5
481.12 K | – | – | – | 1591
491.9 K | – | – | – | 1907.6
501.73 K | – | – | – | 2245.2
509.65 K | – | – | – | 2552.5
Direct measurement | – | 2581 | – | –
Visual observation in an unstirred cell | – | – | 510.07 | –

FC(F)OCC(F)(F)F [1,1,1-trifluoro-2-(difluoromethoxy)ethane]
Conditions | Critical pressure [kPa] | Critical temperature [K] | vapor or sublimation pressure [kPa]
– | 3457 | 444.88 | –
294.35 K | – | – | 72.3
298.14 K | – | – | 84.3
300.2 K | – | – | 91.5
303.14 K | – | – | 102.8
313.12 K | – | – | 148.1
323.16 K | – | – | 207.8
333.19 K | – | – | 284.6
343.23 K | – | – | 381.2
353.26 K | – | – | 500.9
363.3 K | – | – | 646.8
373.34 K | – | – | 823
383.37 K | – | – | 1031.9
393.42 K | – | – | 1282.6
403.45 K | – | – | 1575.8
413.47 K | – | – | 1919.5
423.52 K | – | – | 2334.2
433.56 K | – | – | 2798.5
443.56 K | – | – | 3339.2

CC(F)(F)Cl [1-chloro-1,1-difluoroethane]
Conditions | Critical density [kg/m3] | Critical pressure [kPa] | Critical temperature [K]
– | 442 | – | –
Direct measurement | – | 4054 | –
Visual observation in an unstirred cell | – | – | 410.3

FC(C(F)(F)F)C(F)(F)OCC(F)(F)F (stereo not given) [1,1,1,2,3,3-hexafluoro-3-(2,2,2-trifluoroethoxy)propane]
Conditions | Critical density [kg/m3] | Critical pressure [kPa] | Critical temperature [K] | vapor or sublimation pressure [kPa]
– | 563 | – | – | –
302.76 K | – | – | – | 18.7
312.63 K | – | – | – | 29.6
322.65 K | – | – | – | 44.6
332.64 K | – | – | – | 65.7
342.72 K | – | – | – | 93.9
352.73 K | – | – | – | 131
362.77 K | – | – | – | 179.1
372.79 K | – | – | – | 239.7
382.83 K | – | – | – | 315.9
392.84 K | – | – | – | 408
402.89 K | – | – | – | 521.2
412.92 K | – | – | – | 657.3
422.94 K | – | – | – | 814.3
432.97 K | – | – | – | 1004.4
443 K | – | – | – | 1225.6
453.02 K | – | – | – | 1480.3
463.04 K | – | – | – | 1778.5
473.06 K | – | – | – | 2125
475.79 K | – | – | – | 2236.1
Direct measurement | – | 2233 | – | –
Visual observation in an unstirred cell | – | – | 475.74 | –
